Experimental data as given in the NIST ThermoML archive (doi:10.1021/je060441j).

Assay: xn = mol fraction of the nth substance listed
Conditions: 101 kPa, Liquid

ClC(Cl)Cl [trichloromethane] + CO
mass density [kg/m3]
Conditions | 288.15 K | 293.15 K | 298.15 K | 303.15 K | 308.15 K | 313.15 K
x2 = 0 | 1498.08 | 1488.64 | 1479.15 | 1469.61 | 1460.03 | 1450.41
x2 = 0.0298 | 1487.35 | 1477.93 | 1468.46 | 1458.95 | 1449.38 | 1439.8
x2 = 0.0492 | 1480.27 | 1470.88 | 1461.44 | 1451.95 | 1442.4 | 1432.84
x2 = 0.0724 | 1471.76 | 1462.41 | 1453.01 | 1443.55 | 1434.04 | 1424.49
x2 = 0.0942 | 1463.44 | 1454.14 | 1444.79 | 1435.38 | 1425.89 | 1416.4
x2 = 0.1282 | 1450.19 | 1440.98 | 1431.7 | 1422.37 | 1412.96 | 1403.52
x2 = 0.1586 | 1437.96 | 1428.83 | 1419.63 | 1410.37 | 1401.04 | 1391.68
x2 = 0.2444 | 1401.12 | 1392.24 | 1383.3 | 1374.3 | 1365.22 | 1356.1
x2 = 0.2956 | 1377.44 | 1368.73 | 1359.97 | 1351.14 | 1342.24 | 1333.29
x2 = 0.3383 | 1356.51 | 1347.95 | 1339.33 | 1330.66 | 1321.9 | 1313.09
x2 = 0.398 | 1325.26 | 1316.93 | 1308.55 | 1300.11 | 1291.59 | 1283.02
x2 = 0.4393 | 1302.23 | 1294.08 | 1285.87 | 1277.6 | 1269.26 | 1260.88
x2 = 0.4983 | 1267.1 | 1259.22 | 1251.28 | 1243.28 | 1235.22 | 1227.13
x2 = 0.5505 | 1233.39 | 1225.77 | 1218.09 | 1210.35 | 1202.55 | 1194.71
x2 = 0.6022 | 1197.32 | 1190.01 | 1182.62 | 1175.17 | 1167.65 | 1160.08
x2 = 0.6352 | 1172.94 | 1165.78 | 1158.57 | 1151.3 | 1143.98 | 1136.62
x2 = 0.6999 | 1121.29 | 1114.52 | 1107.71 | 1100.84 | 1093.93 | 1086.96
x2 = 0.75 | 1077.55 | 1071.1 | 1064.61 | 1058.07 | 1051.48 | 1044.85
x2 = 0.7996 | 1030.62 | 1024.5 | 1018.34 | 1012.15 | 1005.91 | 999.622
x2 = 0.8193 | 1011.24 | 1005.11 | 998.988 | 992.86 | 986.761 | 980.633
x2 = 0.8534 | 975.44 | 969.692 | 963.915 | 958.1 | 952.24 | 946.342
x2 = 0.91 | 911.539 | 906.188 | 900.813 | 895.41 | 889.975 | 884.513
x2 = 0.93 | 887.399 | 882.191 | 876.963 | 871.71 | 866.422 | 861.11
x2 = 0.9542 | 857.083 | 852.051 | 847 | 841.927 | 836.829 | 831.705
